Like-named read-outs stand apart in the source and are kept apart here.
How the values were obtained:
[1] = test system: lung-(NCI-H292) and kidney-(MDCK) derived epithelial cells; assay: Intracellular ROS (H2DCF-DA) in other epithelial cells; type: cell-based; details: pre-treatment of epithelial cells, NAC 1 mM, FIG. 2B
Description: Cell Lines. Cells were obtained from the ATCC (A549, NCI-H292 and MDCK), or Cambrex Bio Science (Walkersville, Md.) (NHBE). Cells were maintained in humidified CO2 (5%) incubator and medium as recommended by the suppliers. Measurements of Reactive Oxygen Species. Epithelial cells (A549, NCI-H292, NHBE, and MDCK) were “loaded” with 50 μM H2DCF-DA (Molecular Probes, Eugene, Oreg.) at 37° C. for 15 minutes. After washing out excess probe, cells were treated with various allergenic extracts with or without NADPH (100 μM), NAC (1 mM), or NADPH oxidase inhibitors: quinacrine (500 μM) and diphenylene iodonium (100 μM). The change in fluorescence intensity was assessed in a FLx800 micro plate reader (Bio-Tek Instruments, Winooski, Vt.), or by flow cytometry (FACScan, Becton Dickinson, Franklin Lakes, N.J.) at 488 nm excitation and 530 nm emission. Each data point represents the mean fluorescence from three or more independent experiments, and is expressed ±s.e.m.

[2] = test system: superoxide anions (O2.^−); assay: Cytochrome c assay for detecting O2.− generation; type: biochemical, ragweed (Ambrosia artemisiifolia); details: SOD 50 U/ml added to pRWE^NOX+NADPH+Cyt c
Description: Cytochrome c Assay for Detecting O2.^− Generation. The method described by Messner and Imaly was used. The assay was carried out in PBS with 10 μg pRWE and 10 μM oxidized cytochrome c (Sigma-Aldrich) in the reaction mixture. The reactions were started by adding 100 μM NADPH, and the increase in A550 nm was recorded for 5 min. Saturating amounts of SOD 9(50 U/ml, Sigma-Aldrich) were used in a reference reaction to determine any such O2.^− independent reduction of cytochrome c by the sample.

[3] = test system: NADPH oxidase; assay: NBT assay (reduction of NBT to formazan); type: biochemical, ragweed (Ambrosia artemisiifolia)
Description: NBT Assay. […]. Mixtures were then incubated for 15 min at 37° C., and the sedimented formazan was dissolved in methanol. The absorbance was determined at 530 nm in a spectrophotometer (DU 530, Beckman Instruments, Fullerton, Calif.).

[4] = test system: normal human bronchial epithelial (NHBE) cells; assay: Intracellular ROS (H2DCF-DA) in cultured NHBE cells; type: cell-based; details: quinacrine 500 μM, diphenylene iodonium 100 μM, FIG. 2A
Description: Cell Lines. Cells were obtained from the ATCC (A549, NCI-H292 and MDCK), or Cambrex Bio Science (Walkersville, Md.) (NHBE). Cells were maintained in humidified CO2 (5%) incubator and medium as recommended by the suppliers.
Measurements of Reactive Oxygen Species. Epithelial cells (A549, NCI-H292, NHBE, and MDCK) were “loaded” with 50 μM H2DCF-DA (Molecular Probes, Eugene, Oreg.) at 37° C. for 15 minutes. After washing out excess probe, cells were treated with various allergenic extracts with or without NADPH (100 μM), NAC (1 mM), or NADPH oxidase inhibitors: quinacrine (500 μM) and diphenylene iodonium (100 μM). The change in fluorescence intensity was assessed in a FLx800 micro plate reader (Bio-Tek Instruments, Winooski, Vt.), or by flow cytometry (FACScan, Becton Dickinson, Franklin Lakes, N.J.) at 488 nm excitation and 530 nm emission. Each data point represents the mean fluorescence from three or more independent experiments, and is expressed ±s.e.m.

Molecule	NBT reducing activity of pRWE^NOX in presence of the agent ([3]; pRWE^NOX, FIG. 1A)	effect on extract-induced elevation in ROS levels [4]	further results
CC(=O)N[C@@H](CS)C(=O)O [N-acetyl-L-cysteine]			effect on RWE-induced increase in intracellular ROS levels [1]: inhibited; effect on RWE-induced increase in intracellular ROS levels ([1]; listed as NAC): inhibits
superoxide dismutase			effect on the pRWE^NOX-induced increase in absorbance at 550 nm [2]: abrogated
[N-]=[N+]=[N-].[Na+] [azide, sodium azide]			NBT reducing activity of pRWE^NOX in presence of the agent [3]: resistant
CCN(CC)CCCC(C)Nc1c2ccc(Cl)cc2nc2ccc(OC)cc12 (centres unmarked) [quinacrine]	inhibited	inhibited	
c1ccc2c(c1)[I+]c1ccccc1-2 [diphenyleneiodonium]	inhibited	inhibited	
